Assays:
[1] = test system: tumor growth; conditions: disclosed in EP 1 423 131; cited from earlier work
[2] = test system: solid tumor cells; conditions: disclosed in EP 1 423 131; cited from earlier work
[3] = test system: endothelium proliferation; test: endothelium proliferation; type: cell-based
[4] = test system: VEGF-induced angiogenesis in Matrigel plugs; test: murine model of angiogenesis induced by subcutaneous implant of Matrigel containing VEGF; type: in vivo, mouse; conditions: for reduction in angiogenesis (morphometric analysis, percentage of area covered by vessels): VEGF 40 ng/ml in Matrigel, plugs removed after 7 days, vs VEGF alone
Description: The effect of calcium trifluoroacetate in angiogenesis was evidenced in a murine model of angiogenesis induced by a subcutaneous implant of Matrigel. Matrigel is liquid at 4° C. and solid at 37° C., so that a pro-angiogenetic stimulus can be mixed with Matrigel and inoculated. In this protocol, the selected angiogenetic factor was […], added to the Matrigel together with 16 U/ml heparin, as described in literature (Bussolati B, Altered angiogenesis and survival in human tumor-derived endothelial cells. FASEB J. 2003; Bussolati B, Vascular endothelial growth factor receptor-1 modulates vascular endothelial growth factor-mediated angiogenesis via nitric oxide. Am J Pathol. 2001).
Calcium trifluoroacetate was administered intraperitoneally 30 minutes before Matrigel, then on alternate days (day 2, 4, 6), at a dose of 2 or 4 μg/mouse (0.2 mg/Kg). After 7 days, the animals were killed and the Matrigel plugs were removed for histological examination. Angiogenesis was evaluated by computer assisted morphometric analysis of the percentage of area covered by vessels.
This strong antiangiogenic effect could already be observed macroscopically and confirmed histologically.

[5] = test system: endothelial cells; test: effect of endothelial growth factors on calcium entrance into single endothelial cells; type: cell-based

## O=C([O-])C(F)(F)F.O=C([O-])C(F)(F)F.[Ca+2] [calcium trifluoroacetate]
[1]
  tumor growth in animal experimental models: inhibit tumor growth
[2]
  in vitro cytotoxic activity on solid tumor cells: cytotoxic activity
[3]
  action on endothelium proliferation: evident inhibitory action
[4]; 2 μg/mouse intraperitoneally on alternate days
  reduction in angiogenesis (morphometric analysis, percentage of area covered by vessels): above 40%
[4]; 4 μg/mouse intraperitoneally on alternate days
  reduction in angiogenesis (morphometric analysis, percentage of area covered by vessels): 80%
[4]; mice treated with calcium trifluoroacetate, VEGF 40 ng/ml
  effect of VEGF on angiogenesis in Matrigel plugs (macroscopic and histological): dramatically reduced
[5]
  effect of endothelial growth factors on calcium entrance into single endothelial cells: able to block, at least partly

Source: patent US20070260088A1, “Calcium Trifluoroacetate for Preparing Antiangiogenetic Medicaments” (priority 2004, published 2007)
